Assay results published in patent publication US20110039815A1, “MACROCYCLIC METAL COMPLEXES FOR THEIR USE AS ANTICANCER AGENTS” (priority 2005, published 2011).

Tests used:
[1] = tested on: cervical cancer cell line Hela S3; experiment: Cell death of cervical cancer cell line Hela S3; type: cell-based
[2] = rat, intravenous injection, approximately 172 mg/kg during a six hour period, 0.7% saline

## ^Me3TacnRhCl3 [formula 8]
[1]
  anticancer activity against Hela S3: positive
[1]; 10^−2 molar preparation (1.5×10^−2 M)
  Hela cell death rate: approximately 93.1%
[1]; 10^−3 molar preparation (1.5×10^−3 M)
  Hela cell death rate: approximately 90%
other
  stability in water: stable
[2]
  complex-related toxicity or side effects: no complex-related toxicity or side effects
